Measured values from patent US20250195521A1 (Revolution Medicines, Inc., priority 2020, published 2025).
pIC50: −log10 of the molar value.

What was measured:
[1] = test system: SHP2 variants expressed in T-REx-293 (HEK-293) cells; experiment: pERK AlphaLISA in isogenic T-REx-293-SHP2 cells, EGF stimulated; type: cell-based; conditions: SHP2 G503V
Procedure: Assay data was plotted and EC50 values were determined using four-parameter concentration-response model in GraphPad Prism 7. Data provided are mean+/−standard deviation of duplicate values from representative experiments.

[2] = test system: KLN205 cells (SHP2 G503V); experiment: pERK AlphaLISA in KLN205 cells; type: cell-based, mouse; conditions: KLN205, up to highest test concentration of 10 μM
From the text: (§1) In this example, two mouse tumor cell lines, KLN205 (lung squamous cell carcinoma) and PAN02 (pancreatic cancer), were characterized.
(§2) See FIGS. 5A through 5D, which are graphs depicting the pERK AlphaLISA® assay.

PAN02 cells (SHP2 G503V) [3] = experiment: pERK AlphaLISA in PAN02 cells; type: cell-based, mouse; conditions: PAN02, up to highest test concentration of 10 μM
From the text: as §1, §2

[4] = test system: KLN205 cells (SHP2 G503V); experiment: CellTiter-Glo viability in KLN205 cells; type: cell-based, mouse; conditions: KLN205, up to highest test concentration of 10 μM
From the text: as §1, §2

PAN02 cells (SHP2 G503V) [5] = experiment: CellTiter-Glo viability in PAN02 cells; type: cell-based, mouse; conditions: PAN02, up to highest test concentration of 10 μM
From the text: as §1, §2

[6] = test system: KLN205 tumors (SHP2 G503V); experiment: KLN205 syngeneic tumor model (Example 2); type: in vivo, mouse; conditions: KLN205, DBA/2 mice; RMC-4550 30 mg/kg daily oral
[7] = test system: PAN02 tumors (SHP2 G503V); experiment: PAN02 syngeneic tumor model (Example 2); type: in vivo, mouse; conditions: PAN02, C57/B6 mice; RMC-4550 40 mg/kg every 2 days oral
[8] = test system: LN229.E76K tumors (PTPN11 E76K); experiment: LN229.E76K glioblastoma xenograft (Example 8); type: in vivo, mouse; conditions: PO daily; Compound SOS1-(C) 50 mg/kg, RMC-4550 30 mg/kg, cobimetinib […]
Procedure: 6-7 week athymic nude mice were implanted with LN229.E76K in 50% matirgel (10×10^6 cells/mouse) subcutaneously in the flank. Once tumors reached an average size of 200 mm^3, mice were randomized into treatment groups to start the administration of test articles or control. All treatments were administered daily by oral gavage. Body weight and tumor volume (using calipers) was measured twice weekly until study endpoint.

[9] = test system: Capan-2 tumors (KRAS G12V/wt); experiment: Capan-2 KRAS G12V/wt xenograft efficacy; type: in vivo, mouse; conditions: RMC-4550 20 mg/kg po every other day; Compound A 100 mg/kg po bid; Day 40
Procedure: Capan-2 cells were implanted in 50% Matrigel. Animals were randomized and treatment was initiated at average tumor volume of ˜180 mm3. […] Ns=no significance; *** p<0.001 by one-way ANOVA.
Once tumors reached an average size of ˜180 mm3, mice were randomized to treatment groups to start the administration of test articles or vehicle. […] Body weight and tumor volume (using calipers) was measured twice weekly until study endpoints.

Cc1nc(N2CCC3(CC2)CO[C@@H](C)[C@H]3N)c(CO)nc1-c1cccc(Cl)c1Cl [RMC-4550]
pIC50 [1]: < 4.52
inhibition of pERK [2]: low or moderate inhibition
inhibition of pERK (PAN02 cells (SHP2 G503V) [3]): low or moderate inhibition
inhibition of cell growth [4]: low or moderate inhibition
inhibition of cell growth (PAN02 cells (SHP2 G503V) [5]): low or moderate inhibition
tumor growth inhibition [6]: less than 50%
tumor growth inhibition [7]: less than 50%
tumor growth inhibition (TGI) [8]: 7%
TGI [9]: 39%
